Values quoted from earlier work, collected in patent US20090088578A1, “NUCLEAR MAGNETIC RESONANCE IMAGING OF SELECTIVE SMALL MOLECULE DRUGS AS CONTRAST AGENTS” (priority 2007, published 2009).

Biological target: T1, aldehyde dehydrogenase 1 (Homo sapiens, UniProt P00352)
T1 sequence (P00352 1-501): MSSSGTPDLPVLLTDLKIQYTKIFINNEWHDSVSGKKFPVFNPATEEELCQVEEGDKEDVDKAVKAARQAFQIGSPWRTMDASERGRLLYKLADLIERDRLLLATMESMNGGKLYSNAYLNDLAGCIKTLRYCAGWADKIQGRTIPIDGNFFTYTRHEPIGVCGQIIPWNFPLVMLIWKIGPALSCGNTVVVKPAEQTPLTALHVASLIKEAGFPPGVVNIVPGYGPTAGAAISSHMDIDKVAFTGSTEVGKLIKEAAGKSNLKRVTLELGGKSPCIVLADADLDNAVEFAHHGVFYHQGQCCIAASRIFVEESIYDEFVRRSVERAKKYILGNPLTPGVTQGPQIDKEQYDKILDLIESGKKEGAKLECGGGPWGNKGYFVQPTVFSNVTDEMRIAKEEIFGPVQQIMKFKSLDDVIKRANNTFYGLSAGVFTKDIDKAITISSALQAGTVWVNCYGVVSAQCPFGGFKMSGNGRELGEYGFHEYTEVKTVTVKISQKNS
Conditions: one of its two known protein targets

- affinity for aldehyde dehydrogenase 1: low affinity
Compound: CCN(CC)CCCC(C)Nc1ccnc2cc(Cl)ccc12 (stereo not shown) [Chloroquine, chloroquine]
